Measurements taken from patent publication US20130317037A1, “METHOD OF ADMINISTRATION AND TREATMENT” (GlaxoSmithKline Intellectual Property Development Limited, priority 2010, published 2013).

Tests used:
Experiment in all cases: cells
Assay type in all cases: cell-based
MDAMB175VII = test system: MDAMB175VII
Outline: (§1)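 Seed cells on day −1 so controls remain in log growth; add compound on day 0 as 8 serial 1:5 dilutions; process a time-0 plate for baseline. After three days, derive GI50, TGI and LC50 from Ti, Tz and control readings.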

HCC1569 = test system: HCC1569
Outline: as §1

SUM159PT = test system: SUM159PT
Outline: as §1

HCC1395 = test system: HCC1395
Outline: as §1

BT20 = test system: BT20
Outline: as §1

HCC1419 = test system: HCC1419
Outline: as §1

MDAMB453 = test system: MDAMB453
Outline: as §1

600MPE = test system: 600MPE
Outline: as §1

ZR751 = test system: ZR751
Outline: as §1

COc1ncc(-c2ccc3nccc(-c4ccnnc4)c3c2)cc1NS(=O)(=O)c1ccc(F)cc1F [Compound B, 2,4-difluoro-N-{2-(methyloxy)-5-[4-(4-pyridazinyl)-6-quinolinyl]-3-pyridinyl}benzenesulfonamide]
CC50 (MDAMB175VII; Homo sapiens, MDA-MB-175-VII, 50% net loss of cells vs time 0, read-out: LC50 (the source's name)): 501 nM | IC50 (MDAMB175VII; Homo sapiens, MDA-MB-175-VII, 72 h, three-day drug treatment, read-out: gIC50): 4.4 nM | TGI (MDAMB175VII; total growth inhibition): 13.5 nM | TGI (HCC1569; HCC1569, total growth inhibition): 67.4 nM | IC50 (HCC1569; Homo sapiens, 72 h, HCC1569, three-day drug treatment, read-out: gIC50): 16.3 nM | CC50 (HCC1569; Homo sapiens, HCC1569, 50% net loss of cells vs time 0, read-out: LC50 (the source's name)): > 33000 nM | CC50 (SUM159PT; Homo sapiens, SUM-159-PT, 50% net loss of cells vs time 0, read-out: LC50 (the source's name)): > 33000 nM | IC50 (SUM159PT; Homo sapiens, SUM-159-PT, 72 h, three-day drug treatment, read-out: gIC50): 10.4 nM | TGI (SUM159PT; total growth inhibition): 940.6 nM | TGI (HCC1395; HCC1395, total growth inhibition): 358.6 nM | IC50 (HCC1395; Homo sapiens, 72 h, HCC1395, three-day drug treatment, read-out: gIC50): 50.3 nM | CC50 (HCC1395; Homo sapiens, HCC1395, 50% net loss of cells vs time 0, read-out: LC50 (the source's name)): 26700 nM | TGI (BT20; BT20, total growth inhibition): 95.5 nM | IC50 (BT20; Homo sapiens, BT-20, 72 h, BT20, three-day drug treatment, read-out: gIC50): 14.8 nM | CC50 (BT20; Homo sapiens, BT-20, BT20, 50% net loss of cells vs time 0, read-out: LC50 (the source's name)): 468 nM | TGI (HCC1419; HCC1419, total growth inhibition): 5.2 nM | IC50 (HCC1419; Homo sapiens, 72 h, HCC1419, three-day drug treatment, read-out: gIC50): 1.5 nM | CC50 (HCC1419; Homo sapiens, HCC1419, 50% net loss of cells vs time 0, read-out: LC50 (the source's name)): 514 nM | IC50 (MDAMB453; Homo sapiens, MDA-MB-453, 72 h, MDAMB453, three-day drug treatment, read-out: gIC50): 7.8 nM | CC50 (MDAMB453; Homo sapiens, MDA-MB-453, MDAMB453, 50% net loss of cells vs time 0, read-out: LC50 (the source's name)): 162 nM | TGI (MDAMB453; MDAMB453, total growth inhibition): 54.9 nM | CC50 (600MPE; Homo sapiens, 50% net loss of cells vs time 0, read-out: LC50 (the source's name)): 875 nM | IC50 (600MPE; Homo sapiens, 72 h, three-day drug treatment, read-out: gIC50): 6.8 nM | TGI (600MPE; total growth inhibition): 33.5 nM | IC50 (ZR751; Homo sapiens, ZR-75-1, 72 h, ZR751, three-day drug treatment, read-out: gIC50): 10.5 nM | CC50 (ZR751; Homo sapiens, ZR-75-1, ZR751, 50% net loss of cells vs time 0, read-out: LC50 (the source's name)): 248 nM | TGI (ZR751; ZR751, total growth inhibition): 30.2 nM
